Test results taken from the supplement of paper PMC11061612.

Legend:
[1] = system: 647-V (Bladder Carcinoma); assay: Bliss excess, mean over the matrix (fraction); higher = more synergy
Outline: (§1)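 Cell lines in DMEM/F12 or RPMI with 10% FBS were plated in 1536-well plates, held 24 hours at 37°C, 5% CO2, then given two-drug dose matrices for 72 hours (DMSO typically 0.2%). Viability was read by CellTiter-Glo 2.0 luminescence and scaled as inhibition from 0 (vehicle wells) to 1 (blank wells). Combination Emax is the second-highest inhibition in the matrix; Bliss excess is observed combination effect minus expected EA + EB − EA·EB, EA and EB being single-agent effects.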

[2] = system: KG-1 (Acute Myeloid Leukemia); assay: as above
Outline: as §1

[3] = system: NCI-H1688 (Small Cell Lung Carcinoma); assay: as above
Outline: as §1

[4] = system: NOMO-1 (Acute Myeloid Leukemia); assay: as above
Outline: as §1

[5] = system: RCC10RGB (Kidney Carcinoma); assay: as above
Outline: as §1

[6] = system: SNU-61 (Colorectal Carcinoma); assay: as above
Outline: as §1

A172 (Glioblastoma) = assay: combination Emax (second highest fraction inhibited in the dose matrix, 72 h); higher = more inhibition; extreme values may be limits of the assay
Outline: as §1

[7] = system: BICR78 (Oral Cavity Carcinoma); assay: as above
Outline: as §1

CS1 (Chondrosarcoma) = assay: as above
Outline: as §1

[8] = system: EFM-192A (Breast Carcinoma); assay: as above
Outline: as §1

EW-22 (Ewing's Sarcoma) = assay: as above
Outline: as §1

[9] = system: HCC-827 (Lung Adenocarcinoma); assay: as above
Outline: as §1

HCC38 (Breast Carcinoma) = assay: as above
Outline: as §1

HuO9 (Osteosarcoma) = assay: as above
Outline: as §1

MSTO-211H (Mesothelioma) = assay: as above
Outline: as §1

[10] = system: P31-FUJ (Acute Myeloid Leukemia); assay: as above
Outline: as §1

SK-MEL-1 (Melanoma) = assay: as above
Outline: as §1

[11] = system: SW48 (Colorectal Carcinoma); assay: as above
Outline: as §1

[12] = system: WSU-DLCL2 (B-Cell Non-Hodgkin's Lymphoma); assay: as above
Outline: as §1
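Throughout, for Bliss excess, mean over the matrix: after 72 h of two-drug dosing.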

Compound	Bliss excess [1]	Bliss excess [2]	Bliss excess [3]	Bliss excess [4]	Bliss excess [5]	Bliss excess [6]	combination Emax (A172 (Glioblastoma))	combination Emax [7]	combination Emax (CS1 (Chondrosarcoma))	combination Emax [8]	combination Emax (EW-22 (Ewing's Sarcoma))	combination Emax [9]	combination Emax (HCC38 (Breast Carcinoma))	combination Emax (HuO9 (Osteosarcoma))	combination Emax (MSTO-211H (Mesothelioma))	combination Emax [10]	combination Emax (SK-MEL-1 (Melanoma))	combination Emax [11]	combination Emax [12]
NC1(C(=O)N[C@@H](CCO)c2ccc(Cl)cc2)CCN(c2ncnc3[nH]ccc23)CC1 [Capivasertib] + C[C@@H]1COCCN1C2=NC(=NC(=C2)C3(CC3)[S@](=N)(=O)C)C4=C5C=CNC5=NC=C4 [AZD6738] (first compound max 10 µM, 7x7, partner max 10 µM)	-0.0386	-0.026	-0.0062	-0.0579	-0.134	-0.0316	0.779	0.628	0.621	0.581	0.908	0.576	0.621	0.79	0.304	0.971	0.296	0.759	1
NC1(C(=O)N[C@@H](CCO)c2ccc(Cl)cc2)CCN(c2ncnc3[nH]ccc23)CC1 [Capivasertib] + Cn1cnc2c(F)c(Nc3ccc(Br)cc3Cl)c(C(=O)NOCCO)cc21 [Selumetinib] (first compound max 10 µM, 7x7, partner max 10 µM)	-0.0134	-0.0045	0.0549	0.0099	-0.0305	0.025	0.48	0.548	0.502	0.436	0.543	0.6	0.29	0.509	0.379	0.931	0.874	0.556	1
Cc1nc(Nc2ncc(C(=O)Nc3c(C)cccc3Cl)s2)cc(N2CCN(CCO)CC2)n1 [Dasatinib] + CC(=O)Nc1cccc(-n2c(=O)n(C3CC3)c(=O)c3c(Nc4ccc(I)cc4F)n(C)c(=O)c(C)c32)c1 [Trametinib] (first compound max 2 µM, 7x7, partner max 1 µM)	-0.002	0.0659	-0.0122	-0.126	-0.0719	0.0295	0.512	0.435	0.568	0.122	0.0877	0.947	0.285	0.541	0.747	0.65	0.854	0.959	0.432
COc1cc2ncnc(Nc3ccc(F)c(Cl)c3)c2cc1OCCCN1CCOCC1 [Gefitinib] + CC(C)n1c(=O)n(C)c2cnc3cc(F)c(-c4ccc(OCCCN5CCCCC5)nc4)cc3c21 [AZD1390] (first compound max 10 µM, 7x7, partner max 0.3 µM)	-0.0735	-0.0507	-0.0626	-0.0347	-0.0999	-0.0929	0.169	0.286	0.201	0.262	0.244	0.766	0.109	0.12	0.0343	0.455	0.43	0.399	0.128
CS(=O)(=O)CCNCc1ccc(-c2ccc3ncnc(Nc4ccc(OCc5cccc(F)c5)c(Cl)c4)c3c2)o1 [Lapatinib] + C[C@@H](Oc1cc(-c2cnn(C3CCNCC3)c2)cnc1N)c1c(Cl)ccc(F)c1Cl [Crizotinib] (first compound max 10 µM, 7x7, partner max 10 µM)	0.0097	-0.0028	-0.0764	-0.0755	-0.0298	0.0198	0.941	0.918	0.797	0.878	0.887	0.896	0.556	0.982	0.263	0.957	0.954	0.911	0.924
CC(=O)c1c(C)c2cnc(Nc3ccc(N4CCNCC4)cn3)nc2n(C2CCCC2)c1=O [Palbociclib] + CC1(C)CCC(CN2CCN(c3ccc(C(=O)NS(=O)(=O)c4ccc(NCC5CCOCC5)c([N+](=O)[O-])c4)c(Oc4cnc5[nH]ccc5c4)c3)CC2)=C(c2ccc(Cl)cc2)C1 [Venetoclax] (first compound max 10 µM, 7x7, partner max 1 µM)	-0.0439	0.0888	-0.0505	-0.0032	-0.0012	-0.0361	0.457	0.092	0.354	0.165	0.347	0.168	0.0554	0.406	0.0513	0.364	0.242	0.313	0.98
CC(=O)c1c(C)c2cnc(Nc3ccc(N4CCNCC4)cn3)nc2n(C2CCCC2)c1=O [Palbociclib] + Cc1c2c(nn1C)CSCc1cc(n(C)n1)CSc1cc(c3ccccc3c1)OCCCc1c(C(=O)O)n(C)c3c-2c(Cl)ccc13 [AZD5991] (first compound max 10 µM, 7x7, partner max 1 µM)	-0.0442	-0.0169	0.0284	-0.0915	-0.0083	-0.0371	0.614	0.232	0.304	0.436	0.515	0.197	0.192	0.803	0.144	0.907	0.262	0.409	0.991
